Values quoted from earlier work as cited in publication PMC12472391, “Borylated Five-Membered Ring Iminosugars: Synthesis, Spectroscopic Analysis, and Biological Evaluation for Glycosidase Inhibition and Anticancer Properties for Application in Boron Neutron Capture Therapy (BNCT)—Part 1” (Pharmaceuticals, 2025).
Where a name gives a salt, the structure may show the parent alone. Read-outs that look alike come from different tables or passages of the source.

Columns and labels:
Settings in all cases: cited from earlier work
[1] = target: β-D-galactosidase (E. coli) (Escherichia coli, UniProt P00722)
β-D-galactosidase (E. coli), sequence (P00722 2-1024): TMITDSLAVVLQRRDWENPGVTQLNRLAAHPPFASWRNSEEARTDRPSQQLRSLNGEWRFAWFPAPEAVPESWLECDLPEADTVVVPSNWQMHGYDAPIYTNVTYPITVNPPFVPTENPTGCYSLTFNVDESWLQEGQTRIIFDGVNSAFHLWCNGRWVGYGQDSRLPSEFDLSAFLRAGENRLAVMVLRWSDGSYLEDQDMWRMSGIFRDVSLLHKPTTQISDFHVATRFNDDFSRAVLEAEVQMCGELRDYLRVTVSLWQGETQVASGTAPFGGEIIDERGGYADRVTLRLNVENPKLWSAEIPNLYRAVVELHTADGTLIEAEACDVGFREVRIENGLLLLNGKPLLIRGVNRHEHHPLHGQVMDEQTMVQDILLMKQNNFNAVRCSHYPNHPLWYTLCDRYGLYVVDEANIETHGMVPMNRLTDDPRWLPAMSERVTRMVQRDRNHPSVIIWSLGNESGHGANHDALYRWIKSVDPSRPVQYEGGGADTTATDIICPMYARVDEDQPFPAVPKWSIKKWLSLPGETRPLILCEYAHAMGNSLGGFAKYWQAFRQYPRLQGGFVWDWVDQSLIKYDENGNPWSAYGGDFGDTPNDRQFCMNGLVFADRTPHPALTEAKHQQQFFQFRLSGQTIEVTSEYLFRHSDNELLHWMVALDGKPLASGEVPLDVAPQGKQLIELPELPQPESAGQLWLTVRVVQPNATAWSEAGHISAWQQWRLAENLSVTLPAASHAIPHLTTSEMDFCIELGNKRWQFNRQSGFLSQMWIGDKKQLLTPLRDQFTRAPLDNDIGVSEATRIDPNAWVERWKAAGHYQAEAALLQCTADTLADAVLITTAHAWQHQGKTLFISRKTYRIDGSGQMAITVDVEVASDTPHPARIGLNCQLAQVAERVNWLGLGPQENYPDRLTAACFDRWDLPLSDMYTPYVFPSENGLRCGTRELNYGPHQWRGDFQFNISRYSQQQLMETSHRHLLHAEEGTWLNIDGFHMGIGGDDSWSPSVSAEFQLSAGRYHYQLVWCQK

α-L-fucosidase = test system: α-L-fucosidase; parameters: method as in PMID 2706004
[2] = test system: α-D-mannosidase (Golgi II); parameters: method as in PMID 2706004
[3] = test system: α-D-mannosidase (lysosomal acidic); parameters: method as in PMID 2706004
β-D-mannosidase = test system: β-D-mannosidase; parameters: method as in PMID 2706004
[4] = test system: β-D-N-acetylhexosaminidase; parameters: method as in PMID 2706004
aldose reductase = test system: aldose reductase; parameters: method as in PMID 31557624
α-D-glucosidase = test system: α-D-glucosidase; parameters: method as in PMID 31557624
α-D-glucosidase (rice) = α-D-glucosidase (rice) (Oryza sativa subsp. japonica, UniProt Q653V7); parameters: method as in PMID 31944194
α-D-glucosidase (rice), sequence (Q653V7 34-885): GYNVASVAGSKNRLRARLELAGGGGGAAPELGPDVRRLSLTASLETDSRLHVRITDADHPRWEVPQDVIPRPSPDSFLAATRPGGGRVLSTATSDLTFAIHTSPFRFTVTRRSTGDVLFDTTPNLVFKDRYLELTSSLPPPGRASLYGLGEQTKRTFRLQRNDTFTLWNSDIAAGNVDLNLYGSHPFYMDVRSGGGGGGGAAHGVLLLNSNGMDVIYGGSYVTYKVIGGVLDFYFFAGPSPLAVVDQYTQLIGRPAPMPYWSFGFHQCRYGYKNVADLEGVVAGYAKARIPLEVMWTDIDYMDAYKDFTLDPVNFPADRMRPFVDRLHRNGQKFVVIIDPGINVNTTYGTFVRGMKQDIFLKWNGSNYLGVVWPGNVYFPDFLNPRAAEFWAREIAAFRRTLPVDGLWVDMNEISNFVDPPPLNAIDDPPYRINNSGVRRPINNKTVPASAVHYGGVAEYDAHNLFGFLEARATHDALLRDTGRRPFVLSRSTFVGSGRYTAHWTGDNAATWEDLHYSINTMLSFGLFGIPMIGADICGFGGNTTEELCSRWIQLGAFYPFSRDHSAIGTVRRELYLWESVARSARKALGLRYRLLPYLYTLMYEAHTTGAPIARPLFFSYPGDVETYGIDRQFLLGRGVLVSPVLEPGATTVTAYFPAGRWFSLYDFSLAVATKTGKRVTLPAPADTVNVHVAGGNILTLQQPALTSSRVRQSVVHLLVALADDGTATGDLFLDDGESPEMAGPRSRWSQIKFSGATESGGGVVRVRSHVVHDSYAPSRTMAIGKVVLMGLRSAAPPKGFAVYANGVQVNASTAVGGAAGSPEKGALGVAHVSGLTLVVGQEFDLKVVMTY

[5] = test system: α-D-glucosidase (rat intestinal maltase); parameters: method as in PMID 31944194
α-D-glucosidase (yeast) = target: T1, α-D-glucosidase (yeast) (Saccharomyces cerevisiae, UniProt P53341); parameters: method as in PMID 31944194
T1 construct: purchased Sigma
T1 sequence (P53341 whole entry): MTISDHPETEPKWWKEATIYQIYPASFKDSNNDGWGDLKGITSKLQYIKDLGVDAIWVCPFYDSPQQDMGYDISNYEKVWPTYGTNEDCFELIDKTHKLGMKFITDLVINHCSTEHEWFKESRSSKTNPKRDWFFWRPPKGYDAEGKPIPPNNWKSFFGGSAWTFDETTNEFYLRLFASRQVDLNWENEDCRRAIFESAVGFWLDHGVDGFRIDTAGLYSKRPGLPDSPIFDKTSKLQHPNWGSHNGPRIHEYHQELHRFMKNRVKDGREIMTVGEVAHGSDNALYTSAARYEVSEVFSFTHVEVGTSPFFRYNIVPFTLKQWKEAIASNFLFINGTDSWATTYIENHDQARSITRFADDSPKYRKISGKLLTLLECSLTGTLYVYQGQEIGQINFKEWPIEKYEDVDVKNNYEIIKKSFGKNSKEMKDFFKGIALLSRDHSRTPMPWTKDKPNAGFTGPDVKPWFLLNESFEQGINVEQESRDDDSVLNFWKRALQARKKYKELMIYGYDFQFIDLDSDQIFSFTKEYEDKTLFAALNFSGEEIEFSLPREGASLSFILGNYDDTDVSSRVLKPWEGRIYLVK

β-D-glucosidase (almond) = test system: β-D-glucosidase (almond); parameters: method as in PMID 31944194
[6] = test system: β-D-glucosidase (bovine liver); parameters: method as in PMID 31944194
[7] = target: β-D-glucosidase (human lysosome) (Homo sapiens, UniProt P04062); parameters: method as in PMID 31944194
β-D-glucosidase (human lysosome), sequence (P04062 40-536): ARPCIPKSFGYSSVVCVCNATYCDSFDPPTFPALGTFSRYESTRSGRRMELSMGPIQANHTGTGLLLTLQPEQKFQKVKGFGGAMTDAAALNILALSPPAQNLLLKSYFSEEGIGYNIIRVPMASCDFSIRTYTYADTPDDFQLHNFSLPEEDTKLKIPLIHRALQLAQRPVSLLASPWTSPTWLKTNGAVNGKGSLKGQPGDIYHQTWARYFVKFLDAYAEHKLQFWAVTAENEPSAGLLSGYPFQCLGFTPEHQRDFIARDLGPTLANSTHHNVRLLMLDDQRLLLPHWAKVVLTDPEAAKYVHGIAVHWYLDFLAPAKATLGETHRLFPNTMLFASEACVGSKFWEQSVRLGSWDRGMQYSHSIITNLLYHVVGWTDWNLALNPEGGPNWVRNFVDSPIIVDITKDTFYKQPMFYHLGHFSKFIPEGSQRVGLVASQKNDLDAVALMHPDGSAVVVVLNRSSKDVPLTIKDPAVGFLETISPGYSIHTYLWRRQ

[8] = test system: α-D-galactosidase (coffee bean); parameters: method as in PMID 31944194
[9] = target: T2, β-D-galactosidase (bovine liver) (Bos taurus, UniProt Q58D55); parameters: method as in PMID 31944194
T2 sequence (Q58D55 28-653): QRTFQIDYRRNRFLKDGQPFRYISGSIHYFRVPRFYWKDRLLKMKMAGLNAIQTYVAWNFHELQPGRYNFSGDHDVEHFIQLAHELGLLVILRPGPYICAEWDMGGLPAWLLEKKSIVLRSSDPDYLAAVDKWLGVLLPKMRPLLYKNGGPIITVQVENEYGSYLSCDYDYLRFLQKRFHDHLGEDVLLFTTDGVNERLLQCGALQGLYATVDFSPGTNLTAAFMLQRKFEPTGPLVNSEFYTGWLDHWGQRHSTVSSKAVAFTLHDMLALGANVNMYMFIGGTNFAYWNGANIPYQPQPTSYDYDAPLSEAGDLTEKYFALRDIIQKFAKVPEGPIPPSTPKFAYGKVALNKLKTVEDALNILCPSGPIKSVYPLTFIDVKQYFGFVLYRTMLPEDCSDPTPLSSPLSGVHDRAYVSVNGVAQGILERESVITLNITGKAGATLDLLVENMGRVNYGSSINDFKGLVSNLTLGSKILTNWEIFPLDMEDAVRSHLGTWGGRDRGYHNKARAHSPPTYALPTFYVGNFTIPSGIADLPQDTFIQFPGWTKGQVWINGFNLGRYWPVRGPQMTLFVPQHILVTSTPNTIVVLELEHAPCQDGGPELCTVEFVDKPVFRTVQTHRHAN

[10] = target: T3, α-D-mannosidase (Jack bean) (Canavalia ensiformis, UniProt C0HJB3); parameters: method as in PMID 31944194
T3 construct: purchased Sigma
T3 sequence (C0HJB3 1-981): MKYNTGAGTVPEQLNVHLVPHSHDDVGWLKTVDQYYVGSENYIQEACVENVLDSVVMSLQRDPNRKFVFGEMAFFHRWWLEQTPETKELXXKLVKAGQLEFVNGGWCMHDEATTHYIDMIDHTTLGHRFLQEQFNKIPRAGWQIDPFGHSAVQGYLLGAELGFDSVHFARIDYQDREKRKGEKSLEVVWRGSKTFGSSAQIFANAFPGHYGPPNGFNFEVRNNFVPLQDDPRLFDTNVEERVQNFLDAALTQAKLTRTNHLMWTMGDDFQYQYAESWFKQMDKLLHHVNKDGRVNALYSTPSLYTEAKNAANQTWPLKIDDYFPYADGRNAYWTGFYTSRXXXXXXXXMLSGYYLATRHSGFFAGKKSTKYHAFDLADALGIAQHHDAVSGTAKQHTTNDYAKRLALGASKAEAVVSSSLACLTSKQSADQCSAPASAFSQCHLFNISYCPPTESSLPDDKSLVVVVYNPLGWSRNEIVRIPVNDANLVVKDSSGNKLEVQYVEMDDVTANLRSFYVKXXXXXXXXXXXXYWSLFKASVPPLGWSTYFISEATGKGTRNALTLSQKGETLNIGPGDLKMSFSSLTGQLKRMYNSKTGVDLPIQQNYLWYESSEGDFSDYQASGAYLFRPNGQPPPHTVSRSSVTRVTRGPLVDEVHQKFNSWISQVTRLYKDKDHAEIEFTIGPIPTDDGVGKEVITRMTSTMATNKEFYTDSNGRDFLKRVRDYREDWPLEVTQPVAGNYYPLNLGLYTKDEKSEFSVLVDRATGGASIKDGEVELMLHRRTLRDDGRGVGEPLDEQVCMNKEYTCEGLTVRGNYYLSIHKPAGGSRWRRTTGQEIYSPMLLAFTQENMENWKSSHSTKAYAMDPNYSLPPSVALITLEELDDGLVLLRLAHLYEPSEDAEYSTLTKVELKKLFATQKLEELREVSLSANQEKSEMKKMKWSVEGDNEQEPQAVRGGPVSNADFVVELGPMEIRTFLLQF

β-D-mannosidase (snail) = test system: β-D-mannosidase (snail); parameters: method as in PMID 31944194
[11] = test system: α-L-fucosidase (bovine kidney); parameters: method as in PMID 31944194
[12] = test system: trehalase (porcine kidney); parameters: method as in PMID 31944194
[13] = target: T4, β-D-glucuronidase (E. coli) (Escherichia coli, UniProt P05804); parameters: method as in PMID 31944194
T4 construct: purchased Sigma-Aldrich Co
T4 sequence (P05804 whole entry): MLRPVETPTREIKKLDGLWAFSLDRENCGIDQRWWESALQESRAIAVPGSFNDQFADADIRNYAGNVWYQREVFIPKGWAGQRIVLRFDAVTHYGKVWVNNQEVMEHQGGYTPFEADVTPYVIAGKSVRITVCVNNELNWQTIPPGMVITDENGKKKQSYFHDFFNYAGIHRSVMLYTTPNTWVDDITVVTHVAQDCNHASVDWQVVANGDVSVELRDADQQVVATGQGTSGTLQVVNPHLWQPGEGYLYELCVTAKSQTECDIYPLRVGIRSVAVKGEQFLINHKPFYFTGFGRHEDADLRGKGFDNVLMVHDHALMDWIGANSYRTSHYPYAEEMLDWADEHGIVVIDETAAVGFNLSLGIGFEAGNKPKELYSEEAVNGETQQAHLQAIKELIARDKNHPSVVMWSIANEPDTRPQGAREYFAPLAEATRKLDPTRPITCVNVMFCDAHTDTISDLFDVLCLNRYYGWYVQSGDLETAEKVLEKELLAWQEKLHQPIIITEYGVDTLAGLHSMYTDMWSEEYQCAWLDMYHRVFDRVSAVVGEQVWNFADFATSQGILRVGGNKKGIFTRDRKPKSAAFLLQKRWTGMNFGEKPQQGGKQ

[14] = test system: α-L-rhamnosidase (P. decumbens); parameters: method as in PMID 31944194
[15] = test system: amyloglucosidase (A. niger); parameters: method as in PMID 31944194
[16] = test system: α-D-mannosidase (lysosomal acidic); parameters: method as in PMID 8457203
[17] = test system: α-D-mannosidase (neutral); parameters: method as in PMID 8457203
[18] = test system: α-D-mannosidase (Golgi II); parameters: method as in PMID 8457203
[19] = target: fruit fly lysosomal acidic α-D-mannosidase; parameters: method as in PMID 29323461
[20] = target: fruit fly Golgi II α-D-mannosidase; parameters: method as in PMID 29323461
[21] = test system: α-D-galactosidase (coffee bean)
[22] = target: T3, α-D-mannosidase (Jack bean)

In the case of `Cl.OC[C@@H](O)[C@H]1[C@H](O)[C@H](O)CN1Cc1ccccc1B(O)O` [N-(2-Methylphenylboronic acid)-1,4-dideoxy-1,4-imino-D-talitol.HCl], the “β-D-galactosidase (E. coli) inhibition” value [1] is listed as “β-D-galactosidase (E. coli) (44–55%)”.

For `OC[C@@H](O)[C@@H]1[C@@H](O)[C@@H](O)CN1Cc1ccccc1` [N-Benzyl-1,4-dideoxy-1,4-imino-D-allitol], the α-L-fucosidase inhibition (α-L-fucosidase) is listed as “α-L-fucosidase (76%)”, the “α-D-mannosidase Golgi II inhibition” value [2] is listed as 11% and the “α-D-mannosidase lysosomal acidic inhibition” value [3] is listed as 7%. For the same compound, the β-D-mannosidase inhibition (β-D-mannosidase) was 0% and the β-D-N-acetylhexosaminidase inhibition [4] was 35%.

For `OC[C@@H](O)[C@H]1[C@H](O)[C@@H](O)CN1Cc1ccccc1` [N-Benzyl-1,4-dideoxy-1,4-imino-D-galactitol], the aldose reductase inhibition (aldose reductase) is given as 32.6%, the α-D-glucosidase inhibition (α-D-glucosidase) is given as 93.2% and the IC50 (α-D-glucosidase; read-out: IC50 towards α-D-glucosidase) is given as 40.6 µM.

In the case of `OC[C@@H](O)[C@@H]1[C@H](O)[C@H](O)CN1Cc1ccccc1` [N-Benzyl-1,4-dideoxy-1,4-imino-D-mannitol.HCl], the “α-D-glucosidase (rice) inhibition” value (α-D-glucosidase (rice)) is listed as 34.2%, the “α-D-glucosidase (rat intestinal maltase) inhibition” value [5] is listed as 16.6% and the “α-D-glucosidase (yeast) inhibition” value (α-D-glucosidase (yeast)) is listed as 6.5%. The “β-D-glucosidase (almond) inhibition” value (β-D-glucosidase (almond)) was 6.1%, the “β-D-glucosidase (bovine liver) inhibition” value [6] was 9.5% and the “β-D-glucosidase (human lysosome) inhibition” value [7] was 4.7%. For the same compound, the “α-D-galactosidase (coffee bean) inhibition” value [8] was 8.8%, the “β-D-galactosidase (bovine liver) inhibition” value [9] was 7.9% and the “α-D-mannosidase (Jack bean) inhibition” value [10] was 27%. For the same compound, the “β-D-mannosidase (snail) inhibition” value (β-D-mannosidase (snail)) was 4.4%, the “α-L-fucosidase (bovine kidney) inhibition” value [11] was 8.4% and the “trehalase (porcine kidney) inhibition” value [12] was 0%. For the same compound, the “β-D-glucuronidase (E. coli) inhibition” value [13] was 9.8%, the “α-L-rhamnosidase (P. decumbens) inhibition” value [14] was 11.5% and the “amyloglucosidase (A. niger) inhibition” value [15] was 11.4%. The “α-D-mannosidase lysosomal acidic inhibition” value [16] was 34%, the α-D-mannosidase neutral inhibition [17] was 44% and the “α-D-mannosidase Golgi II inhibition” value [18] was 72%. The IC50 [19] was 1500 µM and the IC50 [20] was 690 µM.

In the case of `OC[C@@H](O)[C@H]1[C@H](O)[C@H](O)CN1Cc1ccccc1` [N-Benzyl-1,4-dideoxy-1,4-imino-D-talitol.HCl], the “β-D-galactosidase (E. coli) inhibition” value [1] is listed as “little inhibition”, the “α-D-galactosidase (coffee bean) inhibition” value [21] is listed as “little inhibition” and the “α-D-mannosidase (Jack bean) inhibition” value [22] is listed as “little inhibition”.
